Source: publication PMC9919699, “A Comprehensive Approach to Derivatization: Elemental Composition, Biochemical, and In Silico Studies of Metformin Derivatives Containing Copper and Zinc Complexes” (Molecules, 2023)
Like-named read-outs stand apart in the source and are kept apart here.

Experiments:
[1] = system: α-amylase; experiment: α-amylase enzyme inhibition assay (starch, dinitro-salicylic acid, 540 nm); type: biochemical
Procedure: All derivatives of metformin were analyzed for serum amylase inhibitory activity using the Yukihoko Hara method. Three test tubes were labeled as blank (B), test (T), and control (C). Then, 2.5 mL of phosphate buffer (pH 6.8) was added to each test tube. Next, 1 mL of starch and 1 mL of 2 N sodium chloride solution were added to each test tube. The test tubes were incubated at 37 °C for 10 min. After incubation, 0.5 mL of derivatives was added to test tube T, followed by 0.2 mL of enzyme (α-amylase). All contents were mixed well, and then the tube was incubated at 37 °C for 10 min. In the control test tube, normal saline (2 N), starch solution (1 mL), and enzyme solution (0.2 mL) were added before incubating at 37 °C for 10 min. In the blank test tube, only 5.7 mL of distilled water was added. Dinitro-salicylic acid (0.2 mL) was added to all test tubes. The contents were mixed well, and the test tubes were kept in a boiling water bath for 15 min. The intensity of reddish orange was read at 540 nm. The percentage inhibitory action of serum amylase was calculated using the following formula:Percentage inhibition = OD of control − OD of test tube/OD of control × 100.

[2] = system: α-glucosidase; experiment: α-glucosidase enzyme inhibition assay (starch substrate, anthrone reagent, 640 nm); type: biochemical
Procedure: The α-glucosidase-inhibitory activity of all derivatives of metformin was tested using the method previously described. Three test tubes were marked as test (T), blank (B), and control (C). Then, 200 µL of substrate (starch) and enzyme (α-glucosidase) was added to test tubes T and C. The contents were mixed well, and then the test tubes were incubated at 37 °C for 30 min. After incubation, trichloroacetic acid was added to all test tubes, which were then centrifuged for 10 min. Free glucose was available after the reaction with anthrone reagent (1.5 mL). The contents in the test tubes were boiled for 15 min, and the absorbance was read at a wavelength at 640 nm. The percentage inhibition was calculated using the following formula:Percentage inhibition = OD of control − OD of test tube/OD of control × 100.

[3] = 250 µg/mL, Table 8 (MCu series)
[4] = 250 µg/mL, Table 9 (MZn series)
[5] = 500 µg/mL, Table 8 (MCu series)
[6] = 500 µg/mL, Table 9 (MZn series)
[7] = 1000 µg/mL, Table 8 (MCu series)
[8] = 1000 µg/mL, Table 9 (MZn series)
[9] = 250 µg/mL, Table 5 (MCu series)
[10] = 250 µg/mL, Table 6 (MZn series)
[11] = 500 µg/mL, Table 5 (MCu series)
[12] = 500 µg/mL, Table 6 (MZn series)
[13] = 1000 µg/mL, Table 5 (MCu series)
[14] = 1000 µg/mL, Table 6 (MZn series)
[15] = Table 8 (MCu series), read-out: IC50
[16] = Table 5 (MCu series), read-out: IC50
[17] = Table 9 (MZn series), read-out: IC50
[18] = Table 6 (MZn series), read-out: IC50

| Structure (SMILES) | % Inhibition [1, 3] [%] | % Inhibition [1, 4] [%] | % Inhibition [1, 5] [%] | % Inhibition [1, 6] [%] | % Inhibition [1, 7] [%] | % Inhibition [1, 8] [%] | % Inhibition [2, 9] [%] | % Inhibition [2, 10] [%] | % Inhibition [2, 11] [%] | % Inhibition [2, 12] [%] | % Inhibition [2, 13] [%] | % Inhibition [2, 14] [%] | IC50 [1, 15] [µM] | IC50 [2, 16] [µM] | IC50 [1, 17] [µM] | other results |
| --- | --- | --- | --- | --- | --- | --- | --- | --- | --- | --- | --- | --- | --- | --- | --- | --- |
| C[C@H]1O[C@H](O[C@H]2[C@H](O)[C@@H](O)[C@@H](O[C@H]3[C@H](O)[C@@H](O)C(O)O[C@@H]3CO)O[C@@H]2CO)[C@H](O)[C@@H](O)[C@@H]1N[C@H]1C=C(CO)[C@@H](O)[C@H](O)[C@H]1O (stereo partly drawn) [Acarbose, reference compound] | 42.73 ± 0.46 | 49.59 ± 0.34 | 67.52 ± 0.34 | 72.73 ± 0.46 | 92.73 ± 0.46 | 91.71 ± 0.46 | 42.65 ± 0.09 | 54.12 ± 0.09 | 62.41 ± 0.28 | 74.52 ± 0.19 | 91.83 ± 0.18 | 98.60 ± 0.10 | – | – | – | % Inhibition ([1]; 250 µg/mL, Table 7 (Met series)): 49.65 ± 0.15%; % Inhibition ([1]; 500 µg/mL, Table 7 (Met series)): 72.33 ± 0.20%; % Inhibition ([1]; 1000 µg/mL, Table 7 (Met series)): 91.58 ± 0.36%; % Inhibition ([2]; 250 µg/mL, Table 4 (Met series)): 41.84 ± 0.08%; % Inhibition ([2]; 500 µg/mL, Table 4 (Met series)): 66.79 ± 0.09%; % Inhibition ([2]; 1000 µg/mL, Table 4 (Met series)): 89.01 ± 0.01% |
| CN(C)C(=N)NC(=N)N=Cc1ccccc1.CN(C)C(=N)NC(=N)N=Cc1ccccc1.O.O.O.O.O.O=S(=O)([O-])[O-].[Cu+2] [MCu1] | 19.44 ± 0.46 | – | 43.71 ± 0.17 | – | 73.31 ± 0.51 | – | 44.24 ± 0.10 | – | 61.46 ± 0.31 | – | 81.13 ± 0.08 | – | 990 | 600 | – | IC50 [2]: 421.7 µg/mL |
| CN(C)C(=N)NC(=N)N=Cc1ccccc1O.CN(C)C(=N)NC(=N)N=Cc1ccccc1O.O.O.O.O.O.O=S(=O)([O-])[O-].[Cu+2] [MCu2] | 29.52 ± 0.28 | – | 44.56 ± 0.34 | – | 77.56 ± 0.34 | – | 31.13 ± 0.04 | – | 48.50 ± 0.22 | – | 77.32 ± 0.17 | – | 790 | – | – | – |
| CN(C)C(=N)NC(=N)N=CC=Cc1ccccc1.CN(C)C(=N)NC(=N)N=CC=Cc1ccccc1.O.O.O.O.O.O=S(=O)([O-])[O-].[Cu+2] [MCu3] | 25.41 ± 0.23 | – | 38.37 ± 0.40 | – | 69.40 ± 0.23 | – | 29.74 ± 0.08 | – | 49.26 ± 0.17 | – | 78.23 ± 0.17 | – | 790 | 570 | – | – |
| C=NC(=N)NC(=N)N(C)C.C=NC(=N)NC(=N)N(C)C.O.O.O.O.O.O=S(=O)([O-])[O-].[Cu+2] [MCu4] | 19.48 ± 0.40 | – | 31.46 ± 0.23 | – | 48.32 ± 0.51 | – | 18.64 ± 0.07 | – | 31.28 ± 0.08 | – | 51.20 ± 0.18 | – | 300 | 500 | – | – |
| CC(C)=NC(=N)NC(=N)N(C)C.CC(C)=NC(=N)NC(=N)N(C)C.O.O.O.O.O.O=S(=O)([O-])[O-].[Cu+2] [MCu5] | 12.46 ± 0.23 | – | 38.44 ± 0.40 | – | 61.38 ± 0.23 | – | 21.73 ± 0.12 | – | 38.21 ± 0.18 | – | 56.45 ± 0.20 | – | 320 | 460 | – | – |
| CC(=NC(=N)NC(=N)N(C)C)c1ccccc1.CC(=NC(=N)NC(=N)N(C)C)c1ccccc1.O.O.O.O.O.O=S(=O)([O-])[O-].[Cu+2] [MCu6] | 23.34 ± 0.51 | – | 45.45 ± 0.28 | – | 64.65 ± 0.28 | – | 10.74 ± 0.11 | – | 24.44 ± 0.15 | – | 53.44 ± 0.33 | – | 320 | 290 | – | – |
| CN(C)C(=N)NC(=N)N=C(c1ccccc1)c1ccccc1.CN(C)C(=N)NC(=N)N=C(c1ccccc1)c1ccccc1.O.O.O.O.O.O=S(=O)([O-])[O-].[Cu+2] [MCu7] | 15.37 ± 0.23 | – | 38.31 ± 0.46 | – | 55.43 ± 0.23 | – | 29.47 ± 0.18 | – | 37.37 ± 0.30 | – | 48.29 ± 0.28 | – | 200 | 320 | – | – |
| COc1cc(C=NC(=N)NC(=N)N(C)C)ccc1O.COc1cc(C=NC(=N)NC(=N)N(C)C)ccc1O.O.O.O.O.O.O=S(=O)([O-])[O-].[Cu+2] [MCu8] | 42.68 ± 0.46 | – | 61.35 ± 0.51 | – | 84.35 ± 0.51 | – | 41.50 ± 0.26 | – | 67.35 ± 35 | – | 83.14 ± 0.09 | – | 900 | 720 | – | IC50 [1]: 712.6 µg/mL |
| CN(C)C(=N)NC(=N)N=C(c1ccccc1)C(O)c1ccccc1.CN(C)C(=N)NC(=N)N=C(c1ccccc1)C(O)c1ccccc1.O.O.O.O.O.O=S(=O)([O-])[O-].[Cu+2] (stereo not drawn) [MCu9] | 13.46 ± 0.23 | – | 34.66 ± 0.40 | – | 67.48 ± 0.40 | – | 15.23 ± 0.12 | – | 28.37 ± 0.20 | – | 49.49 ± 0.25 | – | 130 | 200 | – | – |
| CN(C)C(=N)NC(=N)N=Cc1ccccc1.CN(C)C(=N)NC(=N)N=Cc1ccccc1.O.O.O.O.O.O=S(=O)([O-])[O-].[Zn+2] [MZn1] | – | 31.46 ± 0.34 | – | 55.54 ± 0.34 | – | 82.60 ± 0.40 | – | 54.74 ± 0.15 | – | 62.48 ± 0.19 | – | 77.57 ± 0.20 | – | – | 750 | IC50 [2, 18]: 700 µM |
| CN(C)C(=N)NC(=N)N=Cc1ccccc1O.CN(C)C(=N)NC(=N)N=Cc1ccccc1O.O.O.O.O.O.O=S(=O)([O-])[O-].[Zn+2] [MZn2] | – | 34.46 ± 0.23 | – | 69.32 ± 0.46 | – | 86.58 ± 0.40 | – | 43.55 ± 0.20 | – | 57.61 ± 0.15 | – | 71.37 ± 0.30 | – | – | 670 | IC50 [1]: 484.9 µg/mL; IC50 [2, 18]: 600 µM |
| CN(C)C(=N)NC(=N)N=CC=Cc1ccccc1.CN(C)C(=N)NC(=N)N=CC=Cc1ccccc1.O.O.O.O.O.O=S(=O)([O-])[O-].[Zn+2] [MZn3] | – | 13.59 ± 0.34 | – | 41.55 ± 0.34 | – | 78.57 ± 0.28 | – | 50.22 ± 0.15 | – | 58.18 ± 0.21 | – | 68.63 ± 0.20 | – | – | 780 | IC50 [2, 18]: 540 µM |
| C=NC(=N)NC(=N)N(C)C.C=NC(=N)NC(=N)N(C)C.O.O.O.O.O.O=S(=O)([O-])[O-].[Zn+2] [MZn4] | – | 15.55 ± 0.34 | – | 31.49 ± 0.28 | – | 54.44 ± 0.28 | – | 11.30 ± 0.15 | – | 13.59 ± 0.20 | – | 14.71 ± 0.26 | – | – | 500 | – |
| CC(C)=NC(=N)NC(=N)N(C)C.CC(C)=NC(=N)NC(=N)N(C)C.O.O.O.O.O.O=S(=O)([O-])[O-].[Zn+2] [MZn5] | – | 15.44 ± 0.28 | – | 37.60 ± 0.28 | – | 58.35 ± 0.17 | – | 32.86 ± 0.15 | – | 38.87 ± 0.10 | – | 49.46 ± 0.20 | – | – | 560 | – |
| CC(=NC(=N)NC(=N)N(C)C)c1ccccc1.CC(=NC(=N)NC(=N)N(C)C)c1ccccc1.O.O.O.O.O.O=S(=O)([O-])[O-].[Zn+2] [MZn6] | – | 18.76 ± 0.17 | – | 33.29 ± 0.46 | – | 51.47 ± 0.28 | – | 36.67 ± 0.26 | – | 41.26 ± 0.32 | – | 44.51 ± 0.19 | – | – | 540 | – |
| CN(C)C(=N)NC(=N)N=C(c1ccccc1)c1ccccc1.CN(C)C(=N)NC(=N)N=C(c1ccccc1)c1ccccc1.O.O.O.O.O.O=S(=O)([O-])[O-].[Zn+2] [MZn7] | – | 24.32 ± 0.51 | – | 44.52 ± 0.34 | – | 73.43 ± 0.28 | – | 33.67 ± 67 | – | 37.61 ± 0.20 | – | 42.54 ± 0.26 | – | – | 250 | – |
